Assay results from patent publication US11685746B2, “Heteroaryl compounds for treating Huntington's disease” (PTC THERAPEUTICS, INC., priority 2018, dated 2023).

system: Endogenous Huntingtin Protein; assay: Endogenous Huntingtin Protein Assay (MSD plates, MW1 or MAB2166 capture antibody); type: cell-based; conditions: Table 1
Description: Endogenous Huntingtin Protein Assay
Meso Scale Discovery (MSD) 96-well or 384-well plates were coated overnight at 4° C. with MW1 (expanded polyglutamine) or MAB2166 monoclonal antibody (for capture) at a concentration of 1 μg/mL in PBS (30 μL per well). Plates were then washed three times with 300 μL wash buffer (0.05% Tween-20 in PBS) and blocked (100 μL blocking buffer; 5% BSA in PBS) for 4-5 hours at room temperature with rotational shaking and then washed three times with wash buffer.
Samples (25 μL) were transferred to the antibody-coated MSD plate and incubated overnight at 4° C. After removal of the lysates, the plate was washed three times with wash buffer, and 25 μL of #5656S (Cell signaling; rabbit monoclonal) secondary antibody (diluted to 0.25 μg/mL in 0.05% Tween-20 in blocking buffer) was added to each well and incubated with shaking for 1 Hour at room temperature. Following incubation with the secondary antibody, the wells were rinsed with wash buffer after which 25 μL of goat anti-rabbit SULFO TAG secondary detection antibody (required aspect of the MSD system) (diluted to 0.25 μg/mL in 0.05% Tween-20 in blocking buffer) was added to each well and incubated with shaking for 1 hour at room temperature. After rinsing three times with wash buffer, 150 μL of read buffer T with surfactant (MSD) were added to each empty well, and the plate was imaged on a SI 6000 imager (MSD) according to manufacturers' instructions provided for 96- or 384-well plates.

Compared with CCn1cc(-c2cnc(-c3nc4sc(N(C)C5CCNCC5)nc4s3)c(O)c2)cn1 [Compound 52, 5-(1-ethyl-1H-pyrazol-4-yl)-2-{5-[methyl(piperidin-4-yl)amino][1,3]thiazolo[5,4-d][1,3]thiazol-2-yl}pyridin-3-ol], Cc1cnn(-c2cnc(-c3nc4sc(N(C)C5CCNCC5)nc4s3)c(O)c2)c1 [Compound 63, 5-(4-methylpyrazol-1-yl)-2-[5-[methyl(4-piperidyl)amino]thiazolo[5,4-d]thiazol-2-yl]pyridin-3-ol] is higher in IC50: 1 to 3 µM for the first, 3 to 9 µM for the second. The first is the more potent here.

CN(c1nc2sc(-c3ncc(-c4cn[nH]c4F)cc3O)nc2s1)C1CCNCC1 [Compound 53, 5-(5-fluoro-1H-pyrazol-4-yl)-2-{5-[methyl(piperidin-4-yl)amino][1,3]thiazolo[5,4-d][1,3]thiazol-2-yl}pyridin-3-ol] and CN(c1nc2sc(-c3ncc(-c4cncs4)cc3O)nc2s1)C1CCNCC1 [Compound 64, 5-(thiazol-5-yl)-2-{5-[methyl(piperidin-4-yl)amino][1,3]thiazolo[5,4-d][1,3]thiazol-2-yl}pyridin-3-ol] cannot be ordered by IC50: no more than 0.1 µM for the first, 0.1 to 0.5 µM for the second.

CN(c1nc2sc(-c3ccc(-c4cn[nH]c4)cc3O)nc2s1)[C@H]1CCNC1 [Compound 54, 2-(5-{methyl[(3S)-pyrrolidin-3-yl]amino}[1,3]thiazolo[5,4-d][1,3]thiazol-2-yl)-5-(1H-pyrazol-4-yl)phenol] and CN(c1nc2sc(-c3ccc(-c4cn[nH]c4)cc3O)nc2s1)[C@@H]1CCNC1 [Compound 55, 2-(5-{methyl[(3R)-pyrrolidin-3-yl]amino}[1,3]thiazolo[5,4-d][1,3]thiazol-2-yl)-5-(1H-pyrazol-4-yl)phenol] cannot be ordered by IC50: no more than 0.1 µM for the first, no more than 0.1 µM for the second.

CN(c1nc2sc(-c3ncc(-c4cn[nH]c4)cc3O)nc2s1)[C@@H]1CCNC1 [Compound 56, 2-(5-{methyl[(3R)-pyrrolidin-3-yl]amino}[1,3]thiazolo[5,4-d][1,3]thiazol-2-yl)-5-(1H-pyrazol-4-yl)pyridin-3-ol] and CCN(c1nc2sc(-c3ncc(-c4cn[nH]c4)cc3O)nc2s1)C1CCNCC1 [Compound 61, 2-{5-[ethyl(piperidin-4-yl)amino][1,3]thiazolo[5,4-d][1,3]thiazol-2-yl}-5-(1H-pyrazol-4-yl)pyridin-3-ol] cannot be ordered by IC50: no more than 0.1 µM for the first, no more than 0.1 µM for the second.

CN(c1nc2sc(-c3ncc(Br)cc3O)nc2s1)C1CCNCC1 [Compound 57, 5-bromo-2-{5-[methyl(piperidin-4-yl)amino][1,3]thiazolo[5,4-d][1,3]thiazol-2-yl}pyridin-3-ol] and CN(c1nc2sc(-c3ncc(-n4ccnc4)cc3O)nc2s1)C1CCNCC1 [Compound 60, 5-(1H-imidazol-1-yl)-2-{5-[methyl(piperidin-4-yl)amino][1,3]thiazolo[5,4-d][1,3]thiazol-2-yl}pyridin-3-ol] fall in the same range of IC50: 1 to 3 µM for the first, 1 to 3 µM for the second.

[2H]C([2H])([2H])n1cc(-c2ccc(-c3nc4sc(N(C)C5CCN(C)CC5)nc4s3)c(O)c2)cn1 [Compound 58, 2-{5-[methyl(1-methylpiperidin-4-yl)amino][1,3]thiazolo[5,4-d][1,3]thiazol-2-yl}-5-[1-(^2H3)methyl-1H-pyrazol-4-yl]phenol] and CCN1CCC(N(C)c2nc3sc(-c4ccc(-c5cnn(C)c5)cc4O)nc3s2)CC1 [Compound 59, 2-{5-[(1-ethylpiperidin-4-yl)(methyl)amino][1,3]thiazolo[5,4-d][1,3]thiazol-2-yl}-5-(1-methyl-1H-pyrazol-4-yl)phenol] cannot be ordered by IC50: no more than 0.1 µM for the first, no more than 0.1 µM for the second.

First: CN(c1nc2sc(-c3ncc(-n4cc(F)cn4)cc3O)nc2s1)C1CCNCC1 [Compound 62, 5-(4-fluoropyrazol-1-yl)-2-[5-[methyl(4-piperidyl)amino]thiazolo[5,4-d]thiazol-2-yl]pyridin-3-ol]
Second: C[C@H]1C[C@H](N(C)c2nc3sc(-c4ncc(-c5cn[nH]c5)c5cc[nH]c45)nc3s2)CCN1 [Compound 75, N-methyl-N-[(2S,4R)-2-methylpiperidin-4-yl]-5-[4-(1H-pyrazol-4-yl)-1H-pyrrolo[2,3-c]pyridin-7-yl][1,3]thiazolo[5,4-d][1,3]thiazol-2-amine]
The IC50 of the first is higher: 1 to 3 µM for the first, no more than 0.1 µM for the second. The second is the more potent here.

COc1cc(-c2cnc(-c3nc4sc(N(C)[C@H]5C[C@]6(C)CC[C@](C)(C5)N6)nc4s3)cn2)ncn1 [Compound 65, N-[(1R,3s,5S)-1,5-dimethyl-8-azabicyclo[3.2.1]octan-3-yl]-5-[5-(6-methoxypyrimidin-4-yl)pyrazin-2-yl]-N-methyl[1,3]thiazolo[5,4-d][1,3]thiazol-2-amine] and COc1cc(-c2cnc(-c3nc4sc(N(C)[C@H]5C[C@]6(C)CC[C@](C)(C5)N6)nc4s3)cn2)ccn1 [Compound 69, N-[(1R,3s,5S)-1,5-dimethyl-8-azabicyclo[3.2.1]octan-3-yl]-5-[5-(2-methoxypyridin-4-yl)pyrazin-2-yl]-N-methyl[1,3]thiazolo[5,4-d][1,3]thiazol-2-amine] fall in the same range of IC50: 0.1 to 0.5 µM for the first, 0.1 to 0.5 µM for the second.

C[C@H]1C[C@H](N(C)c2nc3sc(-c4cnc(-n5ccnc5)cn4)nc3s2)CCN1 [Compound 66, 5-[5-(1H-imidazol-1-yl)pyrazin-2-yl]-N-methyl-N-[(2S,4R)-2-methylpiperidin-4-yl][1,3]thiazolo[5,4-d][1,3]thiazol-2-amine] and CN(c1nc2sc(-c3cnc(-n4cncn4)cn3)nc2s1)[C@H]1C[C@]2(C)CC[C@](C)(C1)N2 [Compound 70, N-[(1R,3s,5S)-1,5-dimethyl-8-azabicyclo[3.2.1]octan-3-yl]-N-methyl-5-[5-(1H-1,2,4-triazol-1-yl)pyrazin-2-yl][1,3]thiazolo[5,4-d][1,3]thiazol-2-amine] cannot be ordered by IC50: no more than 0.1 µM for the first, no more than 0.1 µM for the second.

First: Cc1nccn1-c1cnc(-c2nc3sc(N(C)[C@H]4C[C@]5(C)CC[C@](C)(C4)N5)nc3s2)cn1 [Compound 67, N-[(1R,3s,5S)-1,5-dimethyl-8-azabicyclo[3.2.1]octan-3-yl]-N-methyl-5-[5-(2-methyl-1H-imidazol-1-yl)pyrazin-2-yl][1,3]thiazolo[5,4-d][1,3]thiazol-2-amine]
Second: Cc1n[nH]c(C)c1-c1cnc(-c2nc3sc(N(C)[C@H]4C[C@]5(C)CC[C@](C)(C4)N5)nc3s2)cn1 [Compound 73, N-[(1R,3s,5S)-1,5-dimethyl-8-azabicyclo[3.2.1]octan-3-yl]-5-[5-(3,5-dimethyl-1H-pyrazol-4-yl)pyrazin-2-yl]-N-methyl[1,3]thiazolo[5,4-d][1,3]thiazol-2-amine]
The IC50 of the first is lower: no more than 0.1 µM for the first, 1 to 3 µM for the second.

C[C@@H]1C[C@@H](Oc2nc3sc(-c4ccc(-c5cn[nH]c5)c5nc[nH]c45)nc3s2)CCN1 [Compound 68, 7-(5-{[(2R,4S)-2-methylpiperidin-4-yl]oxy}[1,3]thiazolo[5,4-d][1,3]thiazol-2-yl)-4-(1H-pyrazol-4-yl)-1H-benzimidazole] and C[C@@H]1C[C@@H](Oc2nc3sc(-c4ncc(-c5cn[nH]c5)c5cc[nH]c45)nc3s2)CCN1 [Compound 76, 7-(5-{[(2R,4S)-2-methylpiperidin-4-yl]oxy}[1,3]thiazolo[5,4-d][1,3]thiazol-2-yl)-4-(1H-pyrazol-4-yl)-1H-pyrrolo[2,3-c]pyridine] cannot be ordered by IC50: no more than 0.1 µM for the first, no more than 0.1 µM for the second.

Work on C[C@@H]1C[C@@H](Oc2nc3sc(-c4ncc(-c5cn[nH]c5)c5cn[nH]c45)nc3s2)CCN1 [Compound 74, 7-(5-{[(2R,4S)-2-methylpiperidin-4-yl]oxy}[1,3]thiazolo[5,4-d][1,3]thiazol-2-yl)-4-(1H-pyrazol-4-yl)-1H-pyrazolo[3,4-c]pyridine] yielded an IC50 of no more than 0.1 µM.
